System: PC3 cells
Assay: xCELLigence RTCA real-time cell invasion assay (CIM plate, Matrigel) on PC3 prostate cancer cells
Type: cell-based
Conditions: Homo sapiens, PC-3, compound 25 uM to 1 uM, cell index monitored for 72 hours, four-parameter dose-response curve, read-out: IC50, Effect of compounds on the invention on prostate cancer cells
Experimental: The media antibiotics and serum were purchased from Invitrogen (Life Technologies). PC3 cells were purchased from ATCC (Granville, NSW, Australia). PC3 cells were expanded in cell culture T75 flasks with vented cap and then preserved in low passage number. The medium used for PC3 cells was RPMI (GlutaMAX) supplemented with 10% FCS and 1% penicillin/streptomycin (culture media). The cells were maintained at 37° C. in a humidified 95% (v/v) air/5% (v/v) CO2 environment and were grown up to 80% confluence.
XCELLigence® real-time cell analysis (RTCA) instrument (ACEA Biosciences), 16-well ACEA CIM-Plates, 16-well ACEA E-Plat and assembly tool were purchased from ELITechGroup empowering IVD (Braeside, Australia). The Matrigel was purchased from Corning (Australia).
To measure cell invasion under compound treatment the upper chamber of the CIM plate was coated with 5% Matrigel diluted in SF RPMI (20 μl) and incubated in a 37° C. tissue culture incubator for four hours. Using the assembly tool to support the chambers the lower chamber was filled with (160 μl) of culture media containing the compound in specific concertation from 25 uM to 1 uM and two controls (DMSO 0.1% and ESFAM 4C 10 uM) (see the schematic in FIG. 1). Once the upper chamber was placed on the top of the lower chamber it was loaded with (40 μl) serum-free (SF) RPMI containing the compound as previously stated. After one hour calibration in 37° C., plates were placed into the xCELLigence station, and the base-line electric impedance was measured to confirm that all wells and connections were working properly. In case of connection problem, the software automatically informs the researcher about the nature of the problem in the message section. Subsequently cells were trypsinized and upon harvesting and counting they were diluted in SF RPMI to desired density (3×10^4) and seeded (100 μl) in the wells. After 30 minutes of incubation in room-temperature to allow cell attachment the plates were loaded in the xCELLigence RTCA DP machine. The cell invasion was monitored in real-time for the duration of 72 hours. […]
The xCELLigence system automatically monitored the electrical impedance value of each well and expressed as a cell index (CI) value for the duration of 72 hours. The data for treatments was automatically grouped as the mean±standard deviation. The software version used in these experiments is 1.2.1. The electronic record of the experimental data is automatically saved in file that cannot be altered or changed by the researcher.
Statistical analysis was performed using Microsoft® Office EXCEL and GraphPad Prism 7. The IC50 was calculated from the four-parameter dose-response curve (log(inhibitor) vs. response-variable slopes). Where the row-data was inserted in GraphPad Prism 7 (Dose response x-log(dose)) and analysed for XY nonlinear regression (curve fit), dose response-inhibition, log(inhibitor) vs response variable slope (four parameters). For the IC90 calculation the log(IC50)=log(IC90)-(1/HillSlope)*log(9) equation was used in EXCEL based on the raw data extracted from xCELLigence system and the dose-response curve.

IC50 [µM] | Compound
6.51 | CC(C)(C)c1c(C(=O)Nc2cccc(O)c2)nn2c(-c3cn[nH]c3)cc(N3Cc4ccccc4C3)nc12 [Cmpd 85]
6.9 | CN(Cc1ccccc1)c1cc(-c2cn[nH]c2)n2nc(C(=O)Nc3cccc(O)c3)cc2n1 [Compound 1, 5-(benzyl(methyl)amino)-N-(3-hydroxyphenyl)-7-(1H-pyrazol-4-yl)pyrazolo[1,5-a]pyrimidine-2-carboxamide]
16.9 | CN(Cc1ccccc1)c1cc(-c2cn[nH]c2)n2nc(C(N)=O)cc2n1 [Compound 2, 5-(benzyl(methyl)amino)-7-(1H-pyrazol-4-yl)pyrazolo[1,5-a]pyrimidine-2-carboxamide]
11.9 | CN(Cc1ccccc1)c1cc(-c2cn[nH]c2)n2nc(C(=O)NCc3ccccc3)cc2n1 [Compound 3, N-benzyl-5-(benzyl(methyl)amino)-7-(1H-pyrazol-4-yl)pyrazolo[1,5-a]pyrimidine-2-carboxamide]
0.81 | CN(Cc1ccccc1)c1cc(-c2cn[nH]c2)n2nc(C(=O)Nc3ccc(O)cc3)cc2n1 [Compound 4, 5-(benzyl(methyl)amino)-N-(4-hydroxyphenyl)-7-(1H-pyrazol-4-yl)pyrazolo[1,5-a]pyrimidine-2-carboxamide]
1.2 | COc1cccc(NC(=O)c2cc3nc(N(C)Cc4ccccc4)cc(-c4cn[nH]c4)n3n2)c1 [Compound 5, 5-(benzyl(methyl)amino)-N-(3-methoxyphenyl)-7-(1H-pyrazol-4-yl)pyrazolo[1,5-a]pyrimidine-2-carboxamide]
11.7 | CN(Cc1ccccc1)c1cc(-c2cn[nH]c2)n2nc(C(=O)Nc3cccnc3)cc2n1 [Compound 6, 5-(benzyl(methyl)amino)-7-(1H-pyrazol-4-yl)-N-(pyridin-3-yl)pyrazolo[1,5-a]pyrimidine-2-carboxamide]
9.49 | CN(Cc1ccccc1)c1cc(-c2cn[nH]c2)n2nc(C(=O)Nc3ccncc3)cc2n1 [Compound 7, 5-(benzyl(methyl)amino)-7-(1H-pyrazol-4-yl)-N-(pyridin-4-yl)pyrazolo[1,5-a]pyrimidine-2-carboxamide]
5.2 | COc1cc(NC(=O)c2cc3nc(N(C)Cc4ccccc4)cc(-c4cn[nH]c4)n3n2)ccn1 [Compound 8, 5-(benzyl(methyl)amino)-N-(2-methoxypyridin-4-yl)-7-(1H-pyrazol-4-yl)pyrazolo[1,5-a]pyrimidine-2-carboxamide]
4.28 | COc1cc(NC(=O)c2cc3nc(N(C)Cc4ccccc4)cc(-c4cn[nH]c4)n3n2)cc(OC)c1 [Compound 9, 5-(benzyl(methyl)amino)-N-(3,5-dimethoxyphenyl)-7-(1H-pyrazol-4-yl)pyrazolo[1,5-a]pyrimidine-2-carboxamide]
3.71 | Cc1noc(C)c1NC(=O)c1cc2nc(N(C)Cc3ccccc3)cc(-c3cn[nH]c3)n2n1 [Compound 10, 5-(benzyl(methyl)amino)-N-(3,5-dimethylisoxazol-4-yl)-7-(1H-pyrazol-4-yl)pyrazolo[1,5-a]pyrimidine-2-carboxamide]
9.71 | CN(Cc1ccccc1)c1cc(-c2cn[nH]c2)n2nc(C(=O)Nc3cn[nH]c3)cc2n1 [Compound 11, 5-(benzyl(methyl)amino)-N,7-di(1H-pyrazol-4-yl)pyrazolo[1,5-a]pyrimidine-2-carboxamide]
6.64 | CN(Cc1ccccc1)c1cc(-c2cn[nH]c2)n2nc(C(=O)Nc3ccc(C#N)cc3)cc2n1 [Compound 12, 5-(benzyl(methyl)amino)-N-(4-cyanophenyl)-7-(1H-pyrazol-4-yl)pyrazolo[1,5-a]pyrimidine-2-carboxamide]
4.71 | CN(Cc1ccccc1)c1cc(-c2cn[nH]c2)n2nc(C(=O)Nc3cccc(C#N)c3)cc2n1 [Compound 13, 5-(benzyl(methyl)amino)-N-(3-cyanophenyl)-7-(1H-pyrazol-4-yl)pyrazolo[1,5-a]pyrimidine-2-carboxamide]
1.96 | COc1cccc(NC(=O)c2cc3nc(N(C)[C@@H](C)c4ccccc4)cc(-c4cn[nH]c4)n3n2)c1 [Compound 14, (S)—N-(3-methoxyphenyl)-5-(methyl(1-phenylethyl)amino)-7-(1H-pyrazol-4-yl)pyrazolo[1,5-a]pyrimidine-2-carboxamide]
1.02 | C[C@@H](c1ccccc1)N(C)c1cc(-c2cn[nH]c2)n2nc(C(=O)Nc3cccc(O)c3)cc2n1 [Compound 15, (S)—N-(3-hydroxyphenyl)-5-(methyl(1-phenylethyl)amino)-7-(1H-pyrazol-4-yl)pyrazolo[1,5-a]pyrimidine-2-carboxamide]
150 | C[C@@H](c1ccccc1)N(C)c1cc(-c2cn[nH]c2)n2nc(C(=O)Nc3ccccc3)cc2n1 [Compound 16, (S)-5-(methyl(1-phenylethyl)amino)-N-phenyl-7-(1H-pyrazol-4-yl)pyrazolo[1,5-a]pyrimidine-2-carboxamide]
9.67 | C[C@@H](c1ccccc1)N(C)c1cc(-c2cn[nH]c2)n2nc(C(N)=O)cc2n1 [Compound 17, (S)-5-(methyl(1-phenylethyl)amino)-7-(1H-pyrazol-4-yl)pyrazolo[1,5-a]pyrimidine-2-carboxamide]
7.95 | CC(C)Oc1cccc(NC(=O)c2cc3nc(N(C)Cc4ccccc4)cc(-c4cn[nH]c4)n3n2)c1 [Compound 18, 5-(benzyl(methyl)amino)-N-(3-isopropoxyphenyl)-7-(1H-pyrazol-4-yl)pyrazolo[1,5-a]pyrimidine-2-carboxamide]
12.8 | CN(Cc1ccccc1)c1cc(-c2cn[nH]c2)n2nc(C(=O)Nc3cccc(OC(F)F)c3)cc2n1 [Compound 19, 5-(benzyl(methyl)amino)-N-(3-(difluoromethoxy)phenyl)-7-(1H-pyrazol-4-yl)pyrazolo[1,5-a]pyrimidine-2-carboxamide]
3.56 | CN(C)c1cccc(NC(=O)c2cc3nc(N(C)Cc4ccccc4)cc(-c4cn[nH]c4)n3n2)c1 [Compound 20, 5-(benzyl(methyl)amino)-N-(3-(dimethylamino)phenyl)-7-(1H-pyrazol-4-yl)pyrazolo[1,5-a]pyrimidine-2-carboxamide]
3.71 | CN1CCN(c2cccc(NC(=O)c3cc4nc(N(C)Cc5ccccc5)cc(-c5cn[nH]c5)n4n3)c2)CC1 [Compound 22, 5-(benzyl(methyl)amino)-N-(3-(4-methylpiperazin-1-yl)phenyl)-7-(1H-pyrazol-4-yl)pyrazolo[1,5-a]pyrimidine-2-carboxamide]
2.83 | O=C(Nc1ccccc1)c1cc2nc(N3Cc4ccccc4C3)cc(-c3cn[nH]c3)n2n1 [Compound 23, 5-(isoindolin-2-yl)-N-phenyl-7-(1H-pyrazol-4-yl)pyrazolo[1,5-a]pyrimidine-2-carboxamide]
1.42 | O=C(Nc1cccc(O)c1)c1cc2nc(N3Cc4ccccc4C3)cc(-c3cn[nH]c3)n2n1 [Compound 24, N-(3-hydroxyphenyl)-5-(isoindolin-2-yl)-7-(1H-pyrazol-4-yl)pyrazolo[1,5-a]pyrimidine-2-carboxamide]
2.43 | COc1cccc(NC(=O)c2cc3nc(N4Cc5ccccc5C4)cc(-c4cn[nH]c4)n3n2)c1 [Compound 25, 5-(isoindolin-2-yl)-N-(3-methoxyphenyl)-7-(1H-pyrazol-4-yl)pyrazolo[1,5-a]pyrimidine-2-carboxamide]
9.74 | O=C(Nc1cccc(OC(F)(F)F)c1)c1cc2nc(N3Cc4ccccc4C3)cc(-c3cn[nH]c3)n2n1 [Compound 26, 5-(isoindolin-2-yl)-7-(1H-pyrazol-4-yl)-N-(3-(trifluoromethoxy)phenyl)pyrazolo[1,5-a]pyrimidine-2-carboxamide]

Source: patent publication US12215112B2, “CD151 inhibitors” (ESFAM BIOTECH PTY LTD, priority 2020, dated 2025)
